Legend:
YT (IL-2 2.5 ng/mL) [1] = experiment: drug sensitivity score (DSS) (DSS units); higher = more sensitive; extreme values may be limits of the assay; settings: 72 h
[2] = tested on: normal primary NK cells, pool 1 (3 donors) (IL-2 2.5 ng/mL); experiment: as above; settings: 72 h
DERL-7 (IL-2 2.5 ng/mL) [3] = experiment: as above; settings: 72 h
[4] = tested on: normal primary NK cells, pool 3 (3 donors) (IL-2 2.5 ng/mL); experiment: as above; settings: 72 h
IMC-1 (IL-2 20 ng/mL) [5] = experiment: as above; settings: 72 h
[6] = tested on: normal primary NK cells, pool 2 (3 donors) (IL-2 2.5 ng/mL); experiment: as above; settings: 72 h
KAI3 (IL-2 2.5 ng/mL) [7] = experiment: as above; settings: 72 h
NK-92 (IL-2 2.5 ng/mL) [8] = experiment: as above; settings: 72 h
NKL (IL-2 2.5 ng/mL) [9] = experiment: as above; settings: 72 h
[10] = tested on: normal primary NK cells, pool 1 (3 donors), resting (IL-2 0 ng/mL); experiment: as above; settings: 72 h
SNK-6 (IL-2 2.5 ng/mL) [11] = experiment: as above; settings: 72 h
KHYG-1 (IL-2 2.5 ng/mL) [12] = experiment: as above; settings: 72 h
NK-YS (IL-2 2.5 ng/mL) [13] = experiment: as above; settings: 72 h
YT (IL-2 2.5 ng/mL) [14] = experiment: percent inhibition of viability; higher = more inhibition; settings: 72 h
[15] = tested on: normal primary NK cells, pool 1 (3 donors) (IL-2 2.5 ng/mL); experiment: as above; settings: 72 h
DERL-7 (IL-2 2.5 ng/mL) [16] = experiment: as above; settings: 72 h
[17] = tested on: normal primary NK cells, pool 3 (3 donors) (IL-2 2.5 ng/mL); experiment: as above; settings: 72 h
IMC-1 (IL-2 20 ng/mL) [18] = experiment: as above; settings: 72 h
[19] = tested on: normal primary NK cells, pool 2 (3 donors) (IL-2 2.5 ng/mL); experiment: as above; settings: 72 h
KAI3 (IL-2 2.5 ng/mL) [20] = experiment: as above; settings: 72 h
NK-92 (IL-2 2.5 ng/mL) [21] = experiment: as above; settings: 72 h
NKL (IL-2 2.5 ng/mL) [22] = experiment: as above; settings: 72 h
[23] = tested on: normal primary NK cells, pool 1 (3 donors), resting (IL-2 0 ng/mL); experiment: as above; settings: 72 h
SNK-6 (IL-2 2.5 ng/mL) [24] = experiment: as above; settings: 72 h
KHYG-1 (IL-2 2.5 ng/mL) [25] = experiment: as above; settings: 72 h
NK-YS (IL-2 2.5 ng/mL) [26] = experiment: as above; settings: 72 h
[27] = tested on: normal NK cells expanded with K562-aAPC; experiment: as above; settings: 72 h, IL-2 2.5 ng/mL
Experimental: (§1)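 Drug sensitivity and resistance testing on K562-aAPC-expanded normal NK cells: 5 concentrations (10-fold steps over a 10,000-fold range), 72 h at 37 °C, viability by CellTiter-Glo normalised to DMSO and benzethonium chloride controls; DSS from the fitted curve.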

[28] = tested on: normal NK cells expanded with K562-aAPC; experiment: drug sensitivity score (DSS) (DSS units); higher = more sensitive; extreme values may be limits of the assay; settings: 72 h; IL-2 2.5 ng/mL
Experimental: as §1

Nc1nc(F)nc2c1ncn2[C@@H]1O[C@H](CO)[C@@H](O)[C@@H]1O [Fludarabine] (max concentration tested 10000 nM)
Settings | drug sensitivity score
DERL-7 (IL-2 2.5 ng/mL) [3] | 3.52
IMC-1 (IL-2 20 ng/mL) [5] | 2.89
KAI3 (IL-2 2.5 ng/mL) [7] | 7.22
KHYG-1 (IL-2 2.5 ng/mL) [12] | 5.42
NK-92 (IL-2 2.5 ng/mL) [8] | 9.32
NK-YS (IL-2 2.5 ng/mL) [13] | 0.32
NKL (IL-2 2.5 ng/mL) [9] | 12.3
SNK-6 (IL-2 2.5 ng/mL) [11] | 7.06
YT (IL-2 2.5 ng/mL) [1] | 0
[2] | 10.6
[4] | 9.07
[6] | 10.8
[10] | 13.5
[28] | 13.3

percent inhibition of viability [%]
Settings | 1 nM | 10 nM | 100 nM | 1000 nM | 10000 nM
DERL-7 (IL-2 2.5 ng/mL) [16] | -6.18 | -6.69 | 2.47 | -9.31 | 74.8
IMC-1 (IL-2 20 ng/mL) [18] | -8.37 | 2.44 | -0.32 | 0.25 | 53.5
KAI3 (IL-2 2.5 ng/mL) [20] | -10.9 | -7.43 | -11.6 | 10.9 | 97.9
KHYG-1 (IL-2 2.5 ng/mL) [25] | -3.8 | -1.74 | -3.07 | 5.53 | 82.9
NK-92 (IL-2 2.5 ng/mL) [21] | -5.82 | -19.1 | -10.8 | 24.7 | 101
NK-YS (IL-2 2.5 ng/mL) [26] | -7.11 | -1.12 | -0.69 | 4.05 | 12.8
NKL (IL-2 2.5 ng/mL) [22] | -18.8 | -16.5 | -2.27 | 56.9 | 100
SNK-6 (IL-2 2.5 ng/mL) [24] | 18.4 | 33.8 | 24.8 | 32.5 | 28
YT (IL-2 2.5 ng/mL) [14] | -2.12 | 0.54 | 0.43 | -2.19 | 4.14
[15] | 6.23 | -6.78 | 8.3 | 45.7 | 93.6
[17] | -13.2 | -7.62 | 3.81 | 29.6 | 90.2
[19] | -15.8 | -12 | 5.13 | 47.7 | 93
[23] | -2.66 | -18.7 | 10.1 | 65.3 | 89.5
[27] | -4.55 | -1.76 | -0.86 | 67.3 | 100

C[C@]1(O)C[C@@H](c2nc(-c3ccc4ccc(-c5ccccc5)nc4c3)c3c(N)nccn32)C1 [Linsitinib] (max concentration tested 10000 nM)
Settings | drug sensitivity score
DERL-7 (IL-2 2.5 ng/mL) [3] | 0
IMC-1 (IL-2 20 ng/mL) [5] | 0
KAI3 (IL-2 2.5 ng/mL) [7] | 0
KHYG-1 (IL-2 2.5 ng/mL) [12] | 0
NK-92 (IL-2 2.5 ng/mL) [8] | 3.33
NK-YS (IL-2 2.5 ng/mL) [13] | 0
NKL (IL-2 2.5 ng/mL) [9] | 0.01
SNK-6 (IL-2 2.5 ng/mL) [11] | 0
YT (IL-2 2.5 ng/mL) [1] | 0.72
[2] | 0.79
[4] | 0.23
[6] | 1.67
[10] | 3.19
[28] | 0

percent inhibition of viability [%]
Settings | 1 nM | 10 nM | 100 nM | 1000 nM | 10000 nM
DERL-7 (IL-2 2.5 ng/mL) [16] | -5.4 | 6.82 | -0.65 | -2.2 | 7.81
IMC-1 (IL-2 20 ng/mL) [18] | -3.5 | -2.97 | -5.08 | -2.76 | -3.58
KAI3 (IL-2 2.5 ng/mL) [20] | 6.27 | -1.21 | -4.49 | -3.92 | -0.2
KHYG-1 (IL-2 2.5 ng/mL) [25] | -4.45 | -3.38 | -4.33 | 0.38 | 8.9
NK-92 (IL-2 2.5 ng/mL) [21] | 2.33 | 5.73 | 13 | 14.5 | 29.1
NK-YS (IL-2 2.5 ng/mL) [26] | -6.48 | -5.34 | -2.18 | 3.9 | 7.93
NKL (IL-2 2.5 ng/mL) [22] | -9.46 | -15.4 | -8.54 | -9.73 | 12.4
SNK-6 (IL-2 2.5 ng/mL) [24] | 5.21 | -12.6 | -15.2 | -16.7 | -11
YT (IL-2 2.5 ng/mL) [14] | 1.95 | 2.48 | 2.32 | 5.99 | 17.4
[15] | -5.96 | -9.98 | -7.82 | -7.33 | 27.3
[17] | -0.78 | 1.11 | 5.04 | -1.16 | 15.8
[19] | -2.53 | 1.1 | -5.12 | 3.42 | 27.6
[23] | -20.4 | -14.2 | 17.7 | 8.71 | 42.2
[27] | -3.84 | -4.8 | -1.86 | -1.74 | 2.14

Nc1ccccc1NC(=O)c1ccc(CNC(=O)OCc2cccnc2)cc1 [Entinostat] (max concentration tested 10000 nM)
Settings | drug sensitivity score
DERL-7 (IL-2 2.5 ng/mL) [3] | 9.28
IMC-1 (IL-2 20 ng/mL) [5] | 7.18
KAI3 (IL-2 2.5 ng/mL) [7] | 14.8
KHYG-1 (IL-2 2.5 ng/mL) [12] | 11.5
NK-92 (IL-2 2.5 ng/mL) [8] | 14.8
NK-YS (IL-2 2.5 ng/mL) [13] | 8.53
NKL (IL-2 2.5 ng/mL) [9] | 14.6
SNK-6 (IL-2 2.5 ng/mL) [11] | 14.4
YT (IL-2 2.5 ng/mL) [1] | 6.43
[2] | 9.83
[4] | 5.88
[6] | 9.03
[10] | 13
[28] | 8.42

percent inhibition of viability [%]
Settings | 1 nM | 10 nM | 100 nM | 1000 nM | 10000 nM
DERL-7 (IL-2 2.5 ng/mL) [16] | 0.45 | 2.75 | -7.22 | 24.5 | 99.7
IMC-1 (IL-2 20 ng/mL) [18] | 2.59 | 0.46 | 1.95 | 10.1 | 99.8
KAI3 (IL-2 2.5 ng/mL) [20] | -0.78 | 3.8 | 18.4 | 66.9 | 94
KHYG-1 (IL-2 2.5 ng/mL) [25] | -9.03 | -10.2 | -4.46 | 50.8 | 95.8
NK-92 (IL-2 2.5 ng/mL) [21] | -11.3 | -2.61 | 7.67 | 73.5 | 96.4
NK-YS (IL-2 2.5 ng/mL) [26] | -7.17 | -13.1 | -7.95 | 20.5 | 95.3
NKL (IL-2 2.5 ng/mL) [22] | -7.74 | -3.03 | 2.66 | 77.8 | 94
SNK-6 (IL-2 2.5 ng/mL) [24] | 9.17 | 8.55 | 15.6 | 65 | 95.2
YT (IL-2 2.5 ng/mL) [14] | 0.9 | -0.08 | 4.17 | 7.95 | 93.3
[15] | -1.3 | 1.71 | 4.63 | 34.1 | 97.6
[17] | -13.6 | -2.26 | -9.76 | 3.4 | 97.7
[19] | -6.42 | -3.08 | -10.5 | 24.5 | 95.8
[23] | -8 | -8.09 | 10.2 | 61.1 | 92.3
[27] | -3.4 | 0.57 | -3.46 | 17.8 | 99.5

Reference: the supplement of paper PMC5908809
